# Assay results: ChEMBL document CHEMBL5465560, “Selectivity Literature for EUbOPEN Chemogenomic Library” (2024)
# Experiments:
# [1] = target: T1, Mitogen-activated protein kinase 13 (Homo sapiens) (UniProt O15264); assay: Selectivity interaction (KinomeScan (DiscoverX)) EUB0000229b MAPK13; conditions: at 10 µM
# T1 sequence (whole entry): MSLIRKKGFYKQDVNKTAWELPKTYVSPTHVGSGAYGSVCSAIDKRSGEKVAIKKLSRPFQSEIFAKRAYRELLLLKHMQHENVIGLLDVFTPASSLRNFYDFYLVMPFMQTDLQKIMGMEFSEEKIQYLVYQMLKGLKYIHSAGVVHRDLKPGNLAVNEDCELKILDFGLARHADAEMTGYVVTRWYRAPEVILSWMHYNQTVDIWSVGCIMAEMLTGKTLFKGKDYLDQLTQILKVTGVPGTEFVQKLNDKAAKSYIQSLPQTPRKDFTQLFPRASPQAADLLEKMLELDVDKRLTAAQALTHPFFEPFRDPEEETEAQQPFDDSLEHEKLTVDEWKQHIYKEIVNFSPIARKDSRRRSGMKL
# [2] = target: T2, Serine/threonine-protein kinase DCLK1 (Homo sapiens) (UniProt O15075); assay: Selectivity interaction (Kinase panel (DSF assay)) EUB0001558a DCLK1
# T2 sequence (whole entry): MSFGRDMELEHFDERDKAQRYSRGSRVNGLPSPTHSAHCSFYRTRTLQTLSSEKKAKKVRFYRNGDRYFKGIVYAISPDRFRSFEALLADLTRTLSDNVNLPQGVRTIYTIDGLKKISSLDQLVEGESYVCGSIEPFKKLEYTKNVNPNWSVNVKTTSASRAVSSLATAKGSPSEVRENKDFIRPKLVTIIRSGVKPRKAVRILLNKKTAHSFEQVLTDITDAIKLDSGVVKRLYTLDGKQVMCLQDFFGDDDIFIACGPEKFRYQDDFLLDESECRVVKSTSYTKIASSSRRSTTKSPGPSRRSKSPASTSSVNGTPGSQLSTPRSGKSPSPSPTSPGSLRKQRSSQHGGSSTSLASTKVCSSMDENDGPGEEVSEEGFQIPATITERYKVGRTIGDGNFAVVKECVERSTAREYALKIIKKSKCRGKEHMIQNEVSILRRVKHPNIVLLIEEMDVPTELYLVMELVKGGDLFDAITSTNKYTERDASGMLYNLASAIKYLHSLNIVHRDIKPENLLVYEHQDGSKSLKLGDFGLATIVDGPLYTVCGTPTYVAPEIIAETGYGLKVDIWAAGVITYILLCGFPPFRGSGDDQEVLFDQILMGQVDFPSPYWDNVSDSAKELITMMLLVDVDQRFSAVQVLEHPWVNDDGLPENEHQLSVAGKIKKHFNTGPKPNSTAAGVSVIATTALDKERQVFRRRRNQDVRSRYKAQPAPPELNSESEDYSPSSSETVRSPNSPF
# [3] = target: Glycogen synthase kinase-3 beta (Homo sapiens, UniProt P49841); assay: Selectivity interaction (KinomeScan (DiscoverX)) EUB0000092b GSK3B; conditions: at 10 µM
# Chain of Glycogen synthase kinase-3 beta (P49841 whole entry, looked up): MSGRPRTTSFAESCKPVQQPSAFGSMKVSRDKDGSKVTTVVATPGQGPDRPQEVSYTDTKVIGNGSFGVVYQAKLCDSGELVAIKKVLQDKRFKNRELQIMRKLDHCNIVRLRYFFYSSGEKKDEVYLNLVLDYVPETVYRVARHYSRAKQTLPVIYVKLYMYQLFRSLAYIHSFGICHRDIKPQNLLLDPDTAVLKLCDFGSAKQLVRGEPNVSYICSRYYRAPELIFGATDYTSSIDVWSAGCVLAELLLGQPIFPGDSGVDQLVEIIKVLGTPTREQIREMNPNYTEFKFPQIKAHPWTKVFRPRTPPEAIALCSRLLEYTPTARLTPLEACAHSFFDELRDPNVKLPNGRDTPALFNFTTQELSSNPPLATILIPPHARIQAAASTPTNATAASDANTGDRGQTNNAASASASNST
# [4] = target: Serine/threonine-protein kinase SIK1 (Homo sapiens) (UniProt P57059); assay: Selectivity interaction (Ambit KINOMEscan and KiNATiv profiling in Jurkat cells) EUB0000090b SIK1; assay type: cell-based; conditions: at 1 µM
# Chain of Serine/threonine-protein kinase SIK1 (Homo sapiens) (P57059 whole entry): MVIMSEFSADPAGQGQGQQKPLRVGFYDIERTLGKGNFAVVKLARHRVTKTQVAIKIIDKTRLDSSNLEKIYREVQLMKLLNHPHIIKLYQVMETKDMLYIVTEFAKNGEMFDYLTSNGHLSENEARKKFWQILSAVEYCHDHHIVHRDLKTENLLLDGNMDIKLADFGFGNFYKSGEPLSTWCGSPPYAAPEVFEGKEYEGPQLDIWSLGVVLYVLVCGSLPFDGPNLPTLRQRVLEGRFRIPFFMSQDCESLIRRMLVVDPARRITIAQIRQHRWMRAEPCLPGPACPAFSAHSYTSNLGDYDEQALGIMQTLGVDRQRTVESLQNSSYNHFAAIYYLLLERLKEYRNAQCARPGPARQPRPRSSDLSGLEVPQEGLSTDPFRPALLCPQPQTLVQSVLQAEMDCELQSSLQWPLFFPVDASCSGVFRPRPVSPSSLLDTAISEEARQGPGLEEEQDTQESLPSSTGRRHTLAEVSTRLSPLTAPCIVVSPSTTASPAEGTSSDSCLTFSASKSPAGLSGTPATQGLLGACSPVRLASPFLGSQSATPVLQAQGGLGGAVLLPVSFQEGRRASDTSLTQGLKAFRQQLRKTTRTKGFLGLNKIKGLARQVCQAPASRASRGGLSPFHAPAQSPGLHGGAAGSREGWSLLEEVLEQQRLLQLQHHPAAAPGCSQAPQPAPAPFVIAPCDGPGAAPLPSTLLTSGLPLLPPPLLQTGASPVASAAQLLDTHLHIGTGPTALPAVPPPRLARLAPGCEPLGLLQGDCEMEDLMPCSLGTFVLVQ
# [5] = target: T3, Serine/threonine-protein kinase 17B (Homo sapiens) (UniProt O94768); assay: Selectivity interaction (Ambit KINOMEscan and KiNATiv profiling in Jurkat cells) EUB0000090b STK17B; assay type: cell-based; conditions: at 1 µM
# T3 sequence (whole entry): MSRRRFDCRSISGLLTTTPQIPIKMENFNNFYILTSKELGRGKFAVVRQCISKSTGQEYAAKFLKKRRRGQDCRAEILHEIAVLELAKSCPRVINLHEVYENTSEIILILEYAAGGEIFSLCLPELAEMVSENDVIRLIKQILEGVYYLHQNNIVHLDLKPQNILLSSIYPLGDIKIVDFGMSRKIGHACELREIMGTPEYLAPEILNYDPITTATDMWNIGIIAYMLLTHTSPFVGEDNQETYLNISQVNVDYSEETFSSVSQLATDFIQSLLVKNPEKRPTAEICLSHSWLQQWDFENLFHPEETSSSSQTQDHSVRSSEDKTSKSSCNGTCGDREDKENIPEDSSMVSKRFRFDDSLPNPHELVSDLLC
# [6] = target: T4, Serine/threonine-protein kinase Nek9 (Homo sapiens) (UniProt Q8TD19); assay: Selectivity interaction (ActivX KiNativ screen (ex vivo kinase selectivity in human PBMCs)) EUB0001619a NEK9; assay type: cell-based; conditions: PBMC, at 1 µM
# T4 sequence (whole entry): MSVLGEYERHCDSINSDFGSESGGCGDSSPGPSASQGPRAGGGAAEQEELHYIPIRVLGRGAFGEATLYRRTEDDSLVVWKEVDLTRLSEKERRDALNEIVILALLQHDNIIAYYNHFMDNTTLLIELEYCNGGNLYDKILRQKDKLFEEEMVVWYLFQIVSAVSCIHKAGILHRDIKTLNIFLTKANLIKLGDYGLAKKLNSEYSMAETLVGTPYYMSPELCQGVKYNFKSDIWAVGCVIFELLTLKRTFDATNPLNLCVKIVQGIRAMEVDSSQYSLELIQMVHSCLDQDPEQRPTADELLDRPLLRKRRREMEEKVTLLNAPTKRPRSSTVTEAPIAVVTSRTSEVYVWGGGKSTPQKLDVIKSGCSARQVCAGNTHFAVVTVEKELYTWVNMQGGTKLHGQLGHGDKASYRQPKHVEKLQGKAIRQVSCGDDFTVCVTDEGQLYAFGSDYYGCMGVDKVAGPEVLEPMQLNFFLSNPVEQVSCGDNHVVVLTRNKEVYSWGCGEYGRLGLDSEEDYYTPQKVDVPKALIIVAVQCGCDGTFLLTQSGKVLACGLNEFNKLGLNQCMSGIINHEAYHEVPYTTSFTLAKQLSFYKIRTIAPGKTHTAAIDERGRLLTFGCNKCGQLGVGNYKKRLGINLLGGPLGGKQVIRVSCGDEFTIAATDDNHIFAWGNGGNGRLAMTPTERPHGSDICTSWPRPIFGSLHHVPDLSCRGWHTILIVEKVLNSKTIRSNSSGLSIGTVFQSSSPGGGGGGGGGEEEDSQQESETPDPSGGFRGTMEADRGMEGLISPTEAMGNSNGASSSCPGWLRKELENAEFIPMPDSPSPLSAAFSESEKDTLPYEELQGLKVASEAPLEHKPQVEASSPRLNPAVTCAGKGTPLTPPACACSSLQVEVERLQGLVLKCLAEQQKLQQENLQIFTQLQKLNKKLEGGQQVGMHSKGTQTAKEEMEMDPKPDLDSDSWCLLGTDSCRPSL
# [7] = Selectivity interaction (KinomeScan (DiscoverX)) EUB0000695a CDPK1; conditions: at 100 nM
smiles,measurement,setting,value
COc1cc(N(C)c2ccnc3ccc(C(F)(F)F)cc23)cc(OC)c1OC,% binding,[1],78%
CC(C)(O)[C@H](F)CN1Cc2cc(NC(=O)c3cnn4cccnc34)c(N3CCOCC3)cc2C1=O,dTM,[2],-1 K
CCC(=O)N1CCN(c2ccc(-n3c(=O)ccc4cnc5ccc(-c6cnc7ccccc7c6)cc5c43)cc2C(F)(F)F)CC1,% of control,[3],100%
CN(C)C/C=C/C(=O)Nc1ccc(C(=O)N2CCCC(Nc3ncc(Cl)c(-c4c[nH]c5ccccc45)n3)C2)cc1 (configuration not stated),% of control,[4],98%
same,% of control,[5],81%
N#Cc1cccc(-c2c[nH]c3ncnc(N4CCOCC4)c23)c1,% of inhibition,[6],-31%
Cc1cc(F)c(C(=O)Nc2cccc(-c3nncn3C(C)C)n2)cc1-n1cnc(C2CC2)c1,% of control,[7],100%
